From PMC12463105, “NSP7 Molecular Degrader Attenuates Coronaviral Infection Through the β‐TrCP1/FBXO5 Axis” (Advanced Science, 2025)

Legend:
[1] = system: T1, HCoV-OC43; assay: microbe, parasite or virus in culture; set-up: HCoV-OC43 infection assay, reduction of viral infection; details: Betacoronavirus 1, OC43, read-out: OC43
T1 construct: ATCC VR-1558

[2] = system: SARS-CoV-2 NSP7-HiBiT; details: read-out: NSP7- HiBiT; reduction of NSP7-HiBiT signal; degrader

Structure (SMILES)	IC50 [1]	IC50 [2]
CCSc1nsc(NC(=O)Nc2ccccc2C(F)(F)F)n1 [BC24866, 3-(ethylthio)-5-{3-[o-(trifluoromethyl)phenyl]ureido}-1,2,4-thiadiazole]	12.4 µM	18.5 µM
CCSc1nsc(NC(=O)Nc2ccc(C)cc2C)n1 [BC24867, 3-(ethylthio)-5-[3-(2,4-xylyl)ureido]-1,2,4-thiadiazole]	13 µM	> 100 µM
CCOC(=O)CNC(=O)Nc1nc(SCC)ns1 [BC24868, ethyl {3-[3-(ethylthio)-1,2,4-thiadiazol-5-yl]ureido}acetate]	> 100 µM	> 100 µM
CCSc1nsc(NC(=O)NCCCOC)n1 [BC24869, 3-(ethylthio)-5-[3-(3-methoxypropyl)ureido]-1,2,4-thiadiazole]	56.7 µM	> 100 µM
CCSc1nsc(NC(=O)Nc2ccc(F)cc2)n1 [BC24870, 3-(ethylthio)-5-[3-(p-fluorophenyl)ureido]-1,2,4-thiadiazole]	10.1 µM	17 µM
CCOC(=O)C[C@H](NC(=O)Nc1nc(SCC)ns1)c1ccccc1 [BC24871, ethyl (S)-3-{3-[3-(ethylthio)-1,2,4-thiadiazol-5-yl]ureido}-3-phenylpropionate]	23.1 µM	> 100 µM
CCSc1nsc(NC(=O)NC2CCCC2)n1 [BC24872, 5-(3-cyclopentylureido)-3-(ethylthio)-1,2,4-thiadiazole]	30.9 µM	> 100 µM
CCSc1nsc(NC(=O)Nc2ccc(C)c(F)c2)n1 [BC24873, 3-(ethylthio)-5-[3-(3-fluoro-4-tolyl)ureido]-1,2,4-thiadiazole]	7.74 µM	8.51 µM
CCSc1nsc(NC(=O)NCCC(=O)OC)n1 [BC24874, methyl 3-{3-[3-(ethylthio)-1,2,4-thiadiazol-5-yl]ureido}propionate]	84.2 µM	> 100 µM
CCOCCCNC(=O)Nc1nc(SCC)ns1 [BC24875, 5-[3-(3-ethoxypropyl)ureido]-3-(ethylthio)-1,2,4-thiadiazole]	> 100 µM	> 100 µM
CCSc1nsc(NC(=O)Nc2cc(F)ccc2F)n1 [BC24876, 5-[3-(2,5-difluorophenyl)ureido]-3-(ethylthio)-1,2,4-thiadiazole]	5.5 µM	19.4 µM
CCSc1nsc(NC(=O)Nc2cccc(C(F)(F)F)c2)n1 [BC24877]	0.733 µM	0.9 µM
CCSc1nsc(NC(=O)Nc2ccc(Br)c(C)c2)n1 [BC24878, 5-[3-(4-bromo-3-tolyl)ureido]-3-(ethylthio)-1,2,4-thiadiazole]	2.55 µM	3.8 µM
CCSc1nsc(NC(=O)NCc2ccc(C)cc2)n1 [BC24879, 3-(ethylthio)-5-{3-[(p-tolyl)methyl]ureido}-1,2,4-thiadiazole]	13.3 µM	27.6 µM
CCSc1nsc(NC(=O)Nc2ccc3c(c2)OCCO3)n1 [BC24880, 5-[3-(2,3-dihydro-1,4-benzodioxin-6-yl)ureido]-3-(ethylthio)-1,2,4-thiadiazole]	21.2 µM	33.1 µM
CCSc1nsc(NC(=O)NCCc2ccccc2)n1 [BC24881, 3-(ethylthio)-5-(3-phenethylureido)-1,2,4-thiadiazole]	31.9 µM	30 µM
CCSc1nsc(NC(=O)NCc2cccc(OC)c2)n1 [BC24883, 3-(ethylthio)-5-{3-[(m-methoxyphenyl)methyl]ureido}-1,2,4-thiadiazole]	67.8 µM	> 100 µM
CCSc1nsc(NC(=O)Nc2ccc(F)cc2F)n1 [BC24884, 5-[3-(2,4-difluorophenyl)ureido]-3-(ethylthio)-1,2,4-thiadiazole]	16.9 µM	27.6 µM
CCSc1nsc(NC(=O)NCc2ccco2)n1 [BC24885, 3-(ethylthio)-5-(3-furfurylureido)-1,2,4-thiadiazole]	> 100 µM	> 100 µM
CCSc1nsc(NC(=O)NCc2ccc(F)cc2)n1 [BC24886, 3-(ethylthio)-5-{3-[(p-fluorophenyl)methyl]ureido}-1,2,4-thiadiazole]	> 100 µM	> 100 µM
CCSc1nsc(NC(=O)NC[C@H]2CCCO2)n1 [BC24887, 3-(ethylthio)-5-(3-{[(R)-perhydro-2-furyl]methyl}ureido)-1,2,4-thiadiazole]	> 100 µM	> 100 µM
CCSc1nsc(NC(=O)Nc2cccc(SC)c2)n1 [BC24888, 3-(ethylthio)-5-{3-[m-(methylthio)phenyl]ureido}-1,2,4-thiadiazole]	5.27 µM	9.09 µM
CCSc1nsc(NC(=O)N[C@@H](C)C(=O)OC)n1 [BC24889, methyl (S)-2-{3-[3-(ethylthio)-1,2,4-thiadiazol-5-yl]ureido}propionate]	> 100 µM	> 100 µM
CCSc1nsc(NC(=O)NC(C)C)n1 [BC24891, 3-(ethylthio)-5-(3-isopropylureido)-1,2,4-thiadiazole]	> 100 µM	> 100 µM
CCSc1nsc(NC(=O)N[C@@H](C)CC)n1 [BC24892, 5-{3-[(S)-1-methylpropyl]ureido}-3-(ethylthio)-1,2,4-thiadiazole]	> 100 µM	> 100 µM
